In brackets after ≈: the same amount, converted by molar mass.
How the values were obtained:
[1] = test system: Escherichia coli (ATCC 25922, EC); assay: Minimal inhibitory concentration (MIC), EC; type: cell-based; conditions: Escherichia coli ATCC 25922; for MIC: ATCC25922, read-out: MIC EC
Method: (§1) The minimal inhibitory concentration (MIC) of tested compounds was determined following the NCCLS standard. The experiments were conducted in 96-well microtiter plates using two-fold dilutions in Muller-Hilton broth with (Streptococcus pneumonia) or without blood (Bacillus subtilis, Enterococcus faecalis, Staphylococcus aureus, Escherichia coli, MRSA, Actinetobacter baumannii, Pseudomonas aeruginosa, Stenotrophomonas maltophilia, and Mycobacterium smegmatis). Exponentially growing cells at 5×10^5 cells/ml were incubated with test compounds at various concentrations. After an 18 h to 24 h incubation at 37° C., MIC was determined as the minimal concentration of the compound that prevents bacterial growth.

[2] = test system: Staphylococcus aureus (ATCC29213, SA); assay: Minimal inhibitory concentration (MIC), SA; type: cell-based; conditions: for MIC: Staphylococcus aureus, ATCC29213, Staphylococcus aureus ATCC29213, read-out: MIC SA; for MIC SA: Staphylococcus aureus ATCC29213
Method: as §1

[3] = target: T1, penicillin-binding protein 1b from E. coli (transglycosylase) (Escherichia coli, UniProt P02919); assay: Lipid II polymerization / transglycosylase (TG) activity assay; type: biochemical; conditions: for remaining activity at 100 µM: read-out: TG Activity at various concentration of cmpd: 100 μM; for TG Activity at various concentration of cmpd: 50 μM: 50 μM compound; for TG Activity at various concentration of cmpd: 50 μM / TG Activity at various concentration of cmpd: 100 μM / TG Activity at various concentration of cmpd: 25 μM: TG activity remaining (0% = full inhibition); for TG Activity at various concentration of cmpd: 100 μM: 100 μM compound; for remaining activity at 50 µM: read-out: TG Activity at various concentration of cmpd: 50 μM; for TG Activity at various concentration of cmpd: 25 μM: 25 μM compound
T1 construct: PBP1b[58-804] was amplified from E. coli genomic DNA and cloned into the expression vector pET15b; His6 (N, cleaved yes); made in house; host or cells: E. coli BL21(DE3)
Method: Lipid II polymerization assays were carried out by incubating 100 μM fluorophore-labeled lipid II and penicillin-binding protein 1b from E. coli in tubes containing 10 ng/μL N-acetyl muramidase in 50 mM Tris.HCl (pH 8.0), 10 mM MgCl2, 0.1% Triton X-100, 10% DMSO, and 15% MeOH for 30 minutes (Van Nieuwenhze et al. J Am Chem Soc 2002, 124, 3656.). The fluorophore can be dansyl chloride, NBD, BODIPY, fluorescein. Reaction supernatants were then injected onto an anion-exchange HPLC column (SAX1, Supelco Co.) and eluted with a linear gradient of ammonium acetate (20 mM to 0.5 M) in methanol. The eluant was monitored for fluorescence with λex=466 nm and λem=535 nm.
Purified protein was concentrated in 20 mM Tris-HCl (pH 8.0), 300 mM NaCl, and 1 mM DDM. Instead of using Dansyl lipid II, 6-(N-(7-nitrobenz-2-oxa-1,3-diazol-4-yl)amino) hexanoyl (NBD)-labeled Lipid II was prepared as described (Taubes G (2008) Science 321:356-361; Payne D J (2008) Science 321:1644-1645) and used as a substrate to measure TG enzymatic activity, with approach similar to what has been described previously (Holtje J V (1998) Microbiol Mol Biol Rev 62:181-203). Assays were carried out by using the following condition: NBD-Lipid II, 20 nM protein, 50 mM Tris HCl (pH 8.0), 10 mMCaCl2, 0.085% decyl PEG (Anatrace), and 15% MeOH at 37° C. for 0, 1, 3, 5, 7, 9, 20, and 30 min. The concentration of NBD-Lipid II was varied from 1 to 100 μM to determine the rate of the TG activity. After the reaction, 200 μM moenomycin was added to stop the reaction, and 13 μM muramidase (Sigma-Aldrich) was added to digest the TG products to result in NBD-Lipid II without lipid tails. The fluorescent signal decrease of substrate and increase of NBD-Lipid II without lipid tails were detected by anion-exchange column SAX1 (Supelco) on HPLC (Hitachi). The elution procedures was a linear gradient of ammonium acetate (20 mM to 1 M) in MeOH monitored at λexcitation=466 nm and λemission=535 nm. The kinetic parameter was estimated by following the Michaelis-Menten equation. To investigate the importance of transmembrane (TM) helix, PBP1b and PBP1bΔTM (residues Met-1 to Leu-87 were removed) were extracted with the buffer containing 20 mM Tris-HCl (pH 8.0), 300 mM NaCl, and 13 mM FOS-CHOLINE-14 (Anatrace). The protein was purified by nickel chelation chromatography in the presence of 1 mM DDM. The activity assay was carried out by using the following condition: 12 μM NBD-Lipid II, 20 nM protein, 50 mM Tris-HCl (pH 8.0), 10 mM CaCl2, 0.085% decyl PEG, and 15% MeOH at 37° C. for time 0, 1, 3, 5, 7, 9, 20, and 30 min. The initial velocity was used to compare the activity of full-length PBP1b and PBP1bΔTM.

[4] = test system: methicillin-resistant Staphylococcus aureus (ATCC33592, MRSA); assay: Minimal inhibitory concentration (MIC), MRSA; type: cell-based; conditions: methicillin-resistant Staphylococcus aureus ATCC33592; for MIC: Staphylococcus aureus, read-out: MIC MRSA
Method: as §1

[5] = test system: Mycobacterium smegmatis (ATCC11565, MS); assay: Minimal inhibitory concentration (MIC), MS; type: cell-based; conditions: for MIC: Mycolicibacterium smegmatis, ATCC11565, Mycobacterium smegmatis ATCC11565, read-out: MIC MS; for MIC MS: Mycobacterium smegmatis ATCC11565
Method: as §1

T1 sequence (P02919 58-804): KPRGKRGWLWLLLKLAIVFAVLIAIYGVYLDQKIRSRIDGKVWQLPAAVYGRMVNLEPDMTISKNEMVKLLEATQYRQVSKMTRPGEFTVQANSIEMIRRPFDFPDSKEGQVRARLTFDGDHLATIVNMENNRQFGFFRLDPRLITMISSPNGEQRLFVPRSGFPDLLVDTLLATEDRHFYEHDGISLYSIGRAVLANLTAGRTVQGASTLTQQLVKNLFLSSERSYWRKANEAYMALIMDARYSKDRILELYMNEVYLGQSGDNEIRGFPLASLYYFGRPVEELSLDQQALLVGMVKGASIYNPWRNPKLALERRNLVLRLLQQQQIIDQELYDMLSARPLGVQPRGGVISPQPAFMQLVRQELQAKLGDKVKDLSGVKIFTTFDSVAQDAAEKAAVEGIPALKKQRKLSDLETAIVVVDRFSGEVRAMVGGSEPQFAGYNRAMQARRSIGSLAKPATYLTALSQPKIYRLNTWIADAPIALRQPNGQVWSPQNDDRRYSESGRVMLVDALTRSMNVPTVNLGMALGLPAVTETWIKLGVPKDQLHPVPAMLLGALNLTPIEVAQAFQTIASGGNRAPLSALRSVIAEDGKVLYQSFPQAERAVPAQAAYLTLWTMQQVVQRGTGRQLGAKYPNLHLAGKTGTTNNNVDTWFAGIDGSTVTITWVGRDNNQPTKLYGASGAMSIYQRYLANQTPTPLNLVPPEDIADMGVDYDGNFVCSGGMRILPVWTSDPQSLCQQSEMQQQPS

Compound	MIC [1]	MIC [2]	remaining activity at 100 µM [3]	MIC [4]	MIC [5]	MIC EC [1]	MIC SA [2]	TG Activity at various concentration of cmpd: 50 μM [3]	TG Activity at various concentration of cmpd: 100 μM [3]	MIC MRSA [4]	MIC MS [5]	remaining activity at 50 µM [3]	TG Activity at various concentration of cmpd: 25 μM [3]
O=C(Nc1cc(Cl)c(Cl)c(Cl)c1)c1cc(Br)cc(Br)c1O [Compound 001]	16 µg/mL (≈ 33.7 µM)	≤ 0.03 µg/mL	100%	0.06 µg/mL (≈ 0.126 µM)	≤ 0.03 µg/mL								
O=C(Nc1cc(Cl)cc(C(=O)c2ccc(Cl)cc2)c1Cl)c1cc(Br)cc(Br)c1O [Compound 115]						>256 µg/mL	0.5 µg/mL (≈ 0.864 µM)	100%	0%	2 µg/mL (≈ 3.46 µM)	0.25 µg/mL (≈ 0.432 µM)		
O=C(Nc1cc(Cl)ccc1O)c1ccc(Cl)c(C(=O)c2ccc(Cl)cc2)c1 [Compound 126]						>256 µg/mL	1 µg/mL (≈ 2.38 µM)	100%	100%	0.125 µg/mL (≈ 0.297 µM)	0.06 µg/mL (≈ 0.143 µM)		
O=C(Nc1ccc(Cl)cc1)c1cc(Br)cc(Br)c1O [Compound 118]	128 µg/mL (≈ 316 µM)	1 µg/mL (≈ 2.47 µM)	100%		1 µg/mL (≈ 2.47 µM)					4 µg/mL (≈ 9.87 µM)		100%	
Cc1ccc(C(C)C)cc1Oc1ccc(Cl)cc1NC(=O)c1cc(Cl)cc(Br)c1O [Compound 206]							1 µg/mL (≈ 1.96 µM)	0%		0.5 µg/mL (≈ 0.982 µM)	1 µg/mL (≈ 1.96 µM)		60%
Cc1ccc(C(=O)c2cc(Cl)cc(NC(=O)c3cc(Br)cc(Br)c3O)c2Cl)cc1 [Compound 145]							>4 µg/mL	100%	0%	>4 µg/mL	>4 µg/mL		
Cc1ccc(C(C)C)c(Oc2ccc(Cl)cc2NC(=O)c2cc(I)cc(I)c2O)c1 [Compound 208]							4 µg/mL (≈ 6.18 µM)	0%		0.5 µg/mL (≈ 0.772 µM)	2 µg/mL (≈ 3.09 µM)		100%
O=C(Nc1ccc(O)cc1)c1cc(Br)cc(Br)c1O [KTS-1]		32 µg/mL (≈ 82.7 µM)		> 32 µg/mL	16 µg/mL (≈ 41.3 µM)							70%	
Cc1ccc(NC(=O)c2cc(Br)cc(Br)c2O)cc1Cl [KTS-7]		1 µg/mL (≈ 2.38 µM)	100%	1 µg/mL (≈ 2.38 µM)	1 µg/mL (≈ 2.38 µM)							100%	
Cc1ccc(C(C)C)c(Oc2ccccc2NC(=O)c2cc(Br)cc(Br)c2O)c1 [Compound 204]							1 µg/mL (≈ 1.93 µM)	0%		4 µg/mL (≈ 7.7 µM)	8 µg/mL (≈ 15.4 µM)		50%
O=C(Nc1ccccc1O)c1cc(Br)cc(Br)c1O [KTS-3]		4 µg/mL (≈ 10.3 µM)		4 µg/mL (≈ 10.3 µM)	4 µg/mL (≈ 10.3 µM)							70%	
Cc1ccc(C(C)C)c(Oc2ccccc2NC(=O)c2cc(I)cc(I)c2O)c1 [Compound 201]							4 µg/mL (≈ 6.52 µM)	0%		2 µg/mL (≈ 3.26 µM)	8 µg/mL (≈ 13 µM)		30%

From US9890111B2, “Crystal structure of bifunctional transglycosylase PBP1b from E. coli and inhibitors thereof” (Academia Sinica, priority 2008, dated 2018)
